Test results from patent publication US20120283293A1, “Methods of neuroprotection involving Prostaglandin E2 EP4 (PGE2 EP4) receptor activation” (The Board of Trustees of the Leland Stanford Junior …, priority 2011, published 2012).

How the values were obtained:
[1] = test system: PKA activity in BV-2 cells; experiment: cAMP dependent protein kinase A (PKA) activity assay in BV-2 cells; format: cell-based, murine; details: AE1-329 100 nM alone or with LPS 100 ng/ml
Experimental: PKA activity was determined using the PKA kinase activity assay kit (Assay designs, Ann Arbor, Mich.). Cells were harvested 3 minutes after stimulation, and ELISA was carried out according to the manufacturer's instructions. Kinase activity was calculated as (sample absorbance—blank absorbance)/μg protein and normalized to the average value of vehicle.
Downstream signaling events for EP4, a […] receptor, were investigated in LPS treated BV-2 cells (see FIG. 3). […] The increase in PKA activity from EP4 receptor signaling was blocked with the PKA inhibitor H89 at doses of 5 μM and 10 μM (FIG. 3B).

[2] = test system: microglia isolated from adult mouse brain; experiment: inflammatory gene expression in microglia isolated from adult brain of LPS-treated mice; format: in vivo; details: 2-3 mo C57B6 male mice, LPS 5 mg/kg i.p., AE1-329 0.3 mg/kg subcutaneously, microglia harvested at 6 hours
Experimental: qPCR was carried out as previously described (Liang et al., 2008). Briefly, total RNA was isolated using Trizol reagent (Invitrogen, Carlsbad, Calif.), treated with DNAse (Invitrogen), and the reaction was terminated by heating at 65° C. for 10 minutes. First strand cDNA synthesis was performed with 1.5 μg of total RNA, 4 units of Omniscript enzyme (Qiagen, Valencia, Calif.) and 0.25 μg of random primer in a reaction volume of 20 μl at 37° C. for 1 hour. Reverse transcribed cDNA was diluted 1:20 in RNAse free ddH2O for subsequent RT-PCR. The mRNA level for each target gene was quantified by SYBR Green-based qPCR using the QuantiTect SYBR Green PCR kit (Qiagen). Melting curve analysis confirmed the specificity of each reaction. […] Quantification was performed using the standard curve method. […]
Adult microglial cell isolation was carried according to the methods of Cardona et al., 2006, and cells were processed for RNA isolation or flow cytometry. […] Purity of the microglial preparation was determined in separate experiments by labeling ˜10^5 cells/ml with phycoerythrin (PE)-conjugated hamster anti-mouse CD11b or IgG isotype control (1:100; eBioscience, San Diego, Calif.) for 30 minutes on ice. […] Flow cytometry was performed on a LSR II (BD Biosciences), and data analyzed with FlowJo 7.2.2 software. […]

## COCc1ccccc1CC[C@H](O)/C=C/[C@H]1[C@H](O)CC(=O)[C@@H]1SCCCSCC(=O)O [AE1-329]
[1]
  PKA activity: significantly increased
[2]
  LPS-induced microglial COX-2, iNOS, IL-6, TNF-α and gp91phox expression: significantly reduced
